Measurements reported in paper PMC7958344, “Development of Novel Inhibitors Targeting the D-Box of the DNA Binding Domain of Androgen Receptor” (International Journal of Molecular Sciences, 2021).
Residue numbers refer to the chain shown, from its start. Read-outs that look alike come from different tables or passages of the source.

Legend:
[1] = Metabolic stability in human microsomes; assay type: in vitro ADME
Excerpt: We then tested the metabolic stability of these molecules using human microsomes. […] This could explain the lower potency of this compound in cell growth assays, as it is metabolized quickly in the media.

[2] = system: LNCaP cells; assay: Cell viability (PrestoBlue), LNCaP; assay type: cell-based; conditions: for growth inhibition of LNCaP cell line: result in words
Protocol: (§1) VPC-17160 and VPC-17281 were further evaluated for their potential to inhibit the growth of prostate cancer cell lines LNCaP (AR-FL dependent) and 22rv1 (AR-V7 dependent).
(§2) LNCaP cells incorporating an AR2PB-eGFP reporter construct (2 × probasin) are previously described. eGFP and secreted PSA assays were performed as described. The mammalian two-hybrid assay was performed in PC3 cells by co-transfection of 15 ng pA-AR or pB-AR plasmids, with 12.5 ng PG5-NLuc reporter. PC3_iV7_3TKNluc or PC3_iNluc cells were seeded in DMEM +5% CSS at 5000 cells/well for 24 h, followed by adding doxycycline/compounds (18 h) and luminescence measurement. LNCaP and 22rv1 cells were starved in RPMI + CSS (48 h) before cell viability tests using the same conditions as above, followed by 30 μL/well PrestoBlue™ Reagent (1 h) and fluorescence measurement (TECAN F200).

[3] = system: prostate-specific antigen (PSA); assay: Secreted PSA production in LNCaP cells; assay type: cell-based; conditions: Homo sapiens, read-out: IC50, secreted PSA levels
Protocol: To further validate compounds as AR inhibitors, we tested their activity by quantifying the effect on the production of endogenous prostate-specific antigen (PSA) in PCa cell lines. PSA is an AR-regulated serine protease and is widely used as a biomarker for PCa.
as §2

[4] = target: T1, AR-V7 (Homo sapiens, UniProt P10275); assay: AR-V7 transcriptional activity, doxycycline-inducible AR-V7 with ARR3tk-nanoLuciferase reporter in PC3 cells; assay type: cell-based; conditions: for IC50: PC3 doxycycline-inducible AR-V7, ARR3tk-nanoLuciferase reporter, read-out: IC50 for the inhibition of the AR-V7 transcription; for inhibition at 10 µM: PC-3, Supplementary Table 1, read-out: Inhibition Dox-V7 (10 μM)
T1 construct: expressed in transfected cells
T1 sequence (P10275 1-644 isoform P10275-3): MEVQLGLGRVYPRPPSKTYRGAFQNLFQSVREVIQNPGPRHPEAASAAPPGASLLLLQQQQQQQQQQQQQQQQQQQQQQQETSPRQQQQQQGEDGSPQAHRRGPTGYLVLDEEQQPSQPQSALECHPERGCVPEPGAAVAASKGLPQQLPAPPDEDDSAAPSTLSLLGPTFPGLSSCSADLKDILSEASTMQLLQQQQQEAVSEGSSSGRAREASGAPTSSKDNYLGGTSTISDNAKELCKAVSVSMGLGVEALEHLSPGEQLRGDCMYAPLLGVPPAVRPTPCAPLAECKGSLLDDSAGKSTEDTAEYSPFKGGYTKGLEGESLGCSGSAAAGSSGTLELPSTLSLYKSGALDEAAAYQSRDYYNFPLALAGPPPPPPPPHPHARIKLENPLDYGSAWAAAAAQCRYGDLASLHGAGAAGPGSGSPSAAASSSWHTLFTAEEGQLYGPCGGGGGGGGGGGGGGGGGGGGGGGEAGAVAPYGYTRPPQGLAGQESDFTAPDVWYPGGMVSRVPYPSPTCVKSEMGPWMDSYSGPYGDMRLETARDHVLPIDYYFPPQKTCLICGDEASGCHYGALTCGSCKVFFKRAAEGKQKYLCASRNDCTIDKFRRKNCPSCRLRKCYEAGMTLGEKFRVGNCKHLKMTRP
Excerpt: (§3) Compounds were first screened for their inhibition of AR-V7 transcriptional activity. To do so, we created a PC3 cell-based population that stably encodes (i) a doxycycline-inducible AR-V7 cDNA sequence (pLIX402 tet-inducible promoter, puromycin selection), and (ii) the ARR3tk-nanoLuciferase reporter construct. […] This allowed the screening of the compounds without using the error-prone method of transiently transfecting V7 and reporter constructs. The inhibition efficacy of compounds was measured using doxycycline treatment along with an increasing dose of compounds. From this screen, a panel of compounds was identified with some anti-dimerization activity (Supplementary Table S1). […] To rule out direct effects of the compounds on luciferase expression or PC3 cell viability, we used a PC3-dox inducible luciferase cell line in parallel.
as §2

[5] = target: T2, full-length AR (Homo sapiens, UniProt P10275); assay: Mammalian two-hybrid (M2H) AR dimerization assay in PC3 cells; assay type: cell-based; conditions: result in words
T2 construct: Full-length AR cDNA were cloned using Polymerase Incomplete Primer Extension; expressed in transfected cells; host or cells: PC3 (transient co-transfection of pA-AR, pB-AR and PG5-NLuc)
T2 sequence (P10275 1-920): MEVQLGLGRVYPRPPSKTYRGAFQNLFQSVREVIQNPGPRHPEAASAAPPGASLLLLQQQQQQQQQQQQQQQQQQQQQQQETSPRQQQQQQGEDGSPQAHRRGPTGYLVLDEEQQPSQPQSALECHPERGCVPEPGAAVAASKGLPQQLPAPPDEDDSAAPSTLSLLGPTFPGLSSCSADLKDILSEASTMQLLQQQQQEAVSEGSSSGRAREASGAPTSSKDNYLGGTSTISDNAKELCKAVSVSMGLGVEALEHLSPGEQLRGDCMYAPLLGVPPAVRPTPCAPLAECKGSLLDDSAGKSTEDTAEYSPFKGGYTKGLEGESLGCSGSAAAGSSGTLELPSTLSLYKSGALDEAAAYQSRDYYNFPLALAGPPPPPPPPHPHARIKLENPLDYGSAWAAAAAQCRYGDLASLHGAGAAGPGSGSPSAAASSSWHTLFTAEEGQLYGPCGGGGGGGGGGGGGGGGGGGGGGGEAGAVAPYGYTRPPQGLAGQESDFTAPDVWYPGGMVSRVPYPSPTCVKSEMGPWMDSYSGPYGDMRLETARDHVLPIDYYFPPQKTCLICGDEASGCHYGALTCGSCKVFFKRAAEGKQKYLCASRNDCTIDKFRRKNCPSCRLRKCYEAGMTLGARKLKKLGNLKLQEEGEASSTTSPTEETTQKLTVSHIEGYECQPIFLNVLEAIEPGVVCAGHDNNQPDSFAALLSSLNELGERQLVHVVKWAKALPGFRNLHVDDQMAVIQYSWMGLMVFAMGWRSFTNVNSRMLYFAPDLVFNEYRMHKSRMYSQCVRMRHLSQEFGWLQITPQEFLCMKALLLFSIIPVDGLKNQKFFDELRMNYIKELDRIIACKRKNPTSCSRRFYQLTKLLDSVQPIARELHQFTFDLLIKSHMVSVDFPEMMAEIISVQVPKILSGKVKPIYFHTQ
Protocol: Next, the dimerization of full-length AR was assessed by a mammalian two-hybrid (M2H, [30]) assay, where target proteins were fused with Gal4-DBD or VP16 domains. […] High concentrations of VPC-17005 (>20 μM) were required for significant reduction in AR and AR-V7 homo-dimerization.
Figure 3 Anti-dimerization effects of VPC-17160 and VPC-17281 at 20 μM concentraction. PC3 cells were co-transfected with plasmids encoding pA-AR and pB-AR and pG5-NLuc-Gal4 specific reporter. Cells were treated with 0.1% DMSO control, VPC-17160, VPC-17281, or VPC-17005 followed by Nanoluciferase measurement. p < 0.05 (*), p < 0.01 (**) were considered statistically significant (two-tailed t-test). Two-tailed t-test for VPC-17005 vs. 17160 p < 0.05; VPC-17005 vs. VPC-17281 p < 0.05.
Full-length human AR (hARWT) was encoded on pcDNA3.1 expression plasmid. […]
as §2, with “The mammalian two-hybrid assay was performed in PC3 cells by co-transfection of 15 ng pA-AR or pB-AR plasmids, with 12.5 ng PG5-NLuc reporter.” left out

[6] = system: PC3-dox inducible luciferase cell line; assay: Nanoluc counterscreen in PC3-dox inducible luciferase cell line; assay type: cell-based; conditions: Supplementary Table 1
Excerpt: as §3
as §2, with “The mammalian two-hybrid assay was performed in PC3 cells by co-transfection of 15 ng pA-AR or pB-AR plasmids, with 12.5 ng PG5-NLuc reporter.” left out

[7] = target: T3, AR-LBD (Rattus norvegicus, UniProt P15207); assay: Androgen displacement assay (Polar Screen Androgen Receptor Competitor Green Assay Kit, FluormoneAL Green); assay type: binding; conditions: for % Displacement (1 μM) / % Displacement (10 μM): Table 1
T3 construct: displace a fluorescent-tagged androgenic ligand (FluormoneAL Green) from the AR-LBD; purchased
T3 sequence (P15207 651-882 limits assumed): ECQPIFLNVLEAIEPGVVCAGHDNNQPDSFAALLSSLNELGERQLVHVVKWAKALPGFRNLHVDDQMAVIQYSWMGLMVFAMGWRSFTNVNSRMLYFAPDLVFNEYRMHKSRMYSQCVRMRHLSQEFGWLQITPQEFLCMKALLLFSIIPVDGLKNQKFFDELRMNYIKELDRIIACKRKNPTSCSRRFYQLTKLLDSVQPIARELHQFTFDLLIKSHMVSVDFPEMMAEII
Protocol: Androgen displacement was assessed with the Polar Screen Androgen Receptor Competitor Green Assay Kit as per the instructions of the manufacturer.

[8] = target: T4, full-length AR (Homo sapiens, UniProt P10275, T878A); assay: eGFP AR transcriptional assay in LNCaP cells; assay type: cell-based; conditions: for eGFP FL (12 μM) / IC50: LNCaP-eGFP; for eGFP FL (12 μM): Supplementary Table 1; for inhibition of AR-FL expression at 12 μM: result in words; for IC50: read-out: estimated IC50, AR-FL transcriptional activity (eGFP)
T4 construct: endogenous in cells; host or cells: LNCaP with AR2PB-eGFP reporter
T4 sequence (P10275 1-920 T878A): T2 sequence (P10275 1-920) with T878A
Protocol: In addition, these compounds were also tested for their ability to inhibit full-length AR transcriptional activity in LNCaP cells using an enhanced green fluorescent protein (eGFP) AR transcriptional assay, where the expression of eGFP is under the direct control of an androgen-responsive probasin-derived promoter.
as §2

[9] = system: PC3 cell line; assay: Activity in the PC3 cell line; assay type: cell-based; conditions: off-target effects; result in words
[10] = system: 22rv1 cells; assay: Cell viability (PrestoBlue), 22rv1; assay type: cell-based; conditions: for growth inhibition of 22rv1 cell line: result in words
Protocol: as §1, §2

[11] = microsomal stability, Table 1, read-out: Half-Life
[12] = read-out: half-life in microsomes (T1/2)

| SMILES | half-life [1, 11] [min] | growth inhibition of LNCaP cell line [2] | IC50 [3] [µM] | IC50 [4] [µM] | inhibition at 10 µM [4] [%] | reduction of dimerization at 20 μM [5] | Nanoluc Counterscreen (10 μM) [6] [%] | % Displacement (1 μM) [7] [%] | % Displacement (10 μM) [7] [%] | eGFP FL (12 μM) [8] | inhibition of AR-FL expression at 12 μM [8] | IC50 [8] [µM] | half-life [1, 12] [min] | effect on the PC3 cell line [9] | growth inhibition of 22rv1 cell line [10] | IC50 ([2]; Homo sapiens, LNCaP (AR-FL dependent), read-out: IC50, cell growth) [µM] | hormone displacement at 50 μM ([7]; high concentrations (50 μM), result in words) | IC50 ([10]; Homo sapiens, 22rv1 (AR-V7 dependent), read-out: IC50, cell growth) [µM] |
| --- | --- | --- | --- | --- | --- | --- | --- | --- | --- | --- | --- | --- | --- | --- | --- | --- | --- | --- |
| CNC(=O)c1ccc(N2C(=S)N(c3ccc(C#N)c(C(F)(F)F)c3)C(=O)C2(C)C)cc1F [Enzalutamide, reference compound] | > 1000 | – | – | – | – | – | – | – | – | – | – | – | – | – | – | – | – | – |
| O=C(NCc1cccc2ccccc12)NCC(O)(c1cccs1)c1cccs1 [VPC-17160] | 3 | inhibited the growth | 2 | 6 | 70 | full reduction of dimerization | 20 | 10 | 29 | 76 | significant inhibition | 2 | 3 | no effect | inhibited the growth | – | – | – |
| CC(O)(CNC(=O)C=Cc1ccnc2ccccc12)c1ccsc1 (stereo not shown) [VPC-17281] | 90 | inhibited the growth | 6 | 6 | 70 | full reduction of dimerization | 10 | 0 | 0 | 100 | significant inhibition | 5 | > 90 | some activity | inhibited the growth | 25 | no significant hormone displacement | 10 |
